Reference: patent publication US20190192613A1, “COMPOSITION FOR PREVENTING OR TREATING HYPEROXIA-INDUCED LUNG INJURY COMPRISING WKYMVM PEPTIDE AS AN ACTIVE INGREDIENT” (SAMSUNG LIFE PUBLIC WELFARE FOUNDATION, priority 2017, published 2019)

Legend:
[1] = Animal death during the hyperoxia experiment; type: in vivo, mouse; conditions: neonatal mice, i.p. every day P5 to P8, entire experiment
Protocol: Pregnant C57/BL6 wild-type mice (National Experimental Animal Center, Pocheon, Korea) were raised in individual cages by offering a free access to water and food to each mouse, the mice spontaneously gave birth to babies, and then the offsprings were grown in a chamber under hyperoxia (80% O2) conditions (P) or normal oxygen (21% O2) conditions by day 14. At this time, environmental humidity and temperature were maintained at 50% and 24° C., and to investigate the effect of activated FPR2, WKYMVm (SEQ ID NO: 1) or physiological saline (vehicle, 20 μl) was intraperitoneally administered to each mouse every day from P5 to P8. In this case, death of the animals was not observed throughout the entire experimental processes.

[2] = test system: bronchopulmonary dysplasia in neonatal mice; conditions: Martin et al. 2014; cited from earlier work

Compound: CSCC[C@H](NC(=O)[C@H](Cc1ccc(O)cc1)NC(=O)[C@H](CCCCN)NC(=O)[C@@H](N)Cc1c[nH]c2ccccc12)C(=O)N[C@H](C(=O)N[C@H](CCSC)C(=O)O)C(C)C [WKYMVm, Trp-Lys-Tyr-Met-Val-D-Met]
- death of the animals [1]: not observed

Compound: CCCCC[C@H](O)/C=C/C=C\C=C\C=C\[C@@H](O)[C@@H](O)CCCC(=O)O [lipoxin A4]
- alveolar damage caused by bronchopulmonary dysplasia [2]: improve alveolar damage

Compound: CC/C=C\C[C@H](O)/C=C/C=C\C=C\C=C\[C@@H](O)[C@@H](O)C/C=C\CCC(=O)O [resolvin D1]
- alveolar damage caused by bronchopulmonary dysplasia [2]: improve alveolar damage
